Measurements reported in US20090130273A1, “FREEZE DRIED SUCRALOSE” (TATE & LYLE TECHNOLOGY LIMITED, priority 2007, published 2009).

Experiments:
[1] = Moisture absorption as a function of relative humidity; format: physicochemical; details: for moisture absorption behaviour compared with the other samples: RH ramp 0 to 80 % and back down to 20 %
Experimental: Sucralose beads prepared from seeded and unseeded aqueous sucralose solutions using the liquid nitrogen technique described above were evaluated to determine degree of moisture absorption as a function of relative humidity (% RH). A sample of commercial sucralose needles (“neat” sucralose) was also evaluated in parallel, and the results for these runs are shown in Table 1. Each column represents a ramping up of % RH from zero to 80, followed by ramping back down to 20.

[2] = Thermogravimetric analysis, stability at high temperature; format: physicochemical; details: mass as a function of time at 90° C. in nitrogen
Experimental: Thermogravimetric analysis was performed on commercial, seeded and unseeded samples made as described above in order to assess stability of the products at high temperature. The results are shown in FIGS. 4, 5 and 6, respectively. In each case, the mass of a sample was followed as a function of time at 90° C. in nitrogen, recorded as percent of original mass remaining. The vertical lines represent the point of the mass curve representing the halfway point of mass loss, and thus may be used as a measure of how rapidly decomposition set in. […] This further bears out the fact, noted above in view of the moisture absorption results, that these samples represent three different forms of sucralose.

| SMILES | Mass Increase (%) ([1]; 0 % RH, start of upward ramp) | Mass Increase (%) ([1]; 20 % RH, ramping back down) | Mass Increase (%) ([1]; 20 % RH, ramping up) | Mass Increase (%) ([1]; 30 % RH, ramping back down) | Mass Increase (%) ([1]; 30 % RH, ramping up) | Mass Increase (%) ([1]; 40 % RH, ramping back down) | Mass Increase (%) ([1]; 40 % RH, ramping up) | Mass Increase (%) ([1]; 50 % RH, ramping back down) | Mass Increase (%) ([1]; 50 % RH, ramping up) | Mass Increase (%) ([1]; 60 % RH, ramping back down) | Mass Increase (%) ([1]; 60 % RH, ramping up) | Mass Increase (%) ([1]; 70 % RH, ramping back down) | Mass Increase (%) ([1]; 70 % RH, ramping up) | Mass Increase (%) ([1]; 80 % RH, top of ramp) | Mass Increase (%) ([1]; 80 % RH, top of ramp, listed as neat (commercial) product) | onset of decomposition (halfway point of mass loss) ([2]; listed as commercial sample) | moisture absorption behaviour compared with the other samples ([1]; listed as seeded product) | onset of decomposition (halfway point of mass loss) ([2]; listed as seeded product) | moisture absorption behaviour compared with the other samples ([1]; listed as unseeded product) | onset of decomposition (halfway point of mass loss) ([2]; listed as unseeded product) |
| --- | --- | --- | --- | --- | --- | --- | --- | --- | --- | --- | --- | --- | --- | --- | --- | --- | --- | --- | --- | --- |
| OCC1O[C@@H](O[C@]2(CCl)O[C@@H](CCl)C(O)C2O)C(O)C(O)[C@H]1Cl (stereo partly drawn) [Neat, 4,1′,6′-trichloro-4,1′,6′-trideoxygalactosucrose, reference compound] | 0.00 | 0.00 | 0.00 | 0.00 | 0.00 | 0.00 | 0.00 | 0.00 | 0.00 | 0.00 | 0.00 | 0.00 | 0.00 | 0.10 | 0.1 | earliest to show significant decomposition |  |  |  |  |
| OCC1O[C@@H](O[C@]2(CCl)O[C@@H](CCl)C(O)C2O)C(O)C(O)[C@H]1Cl (stereo partly drawn) [Seeded, 4,1′,6′-trichloro-4,1′,6′-trideoxygalactosucrose] | 0 | 0.02 | 0.01 | 0.02 | 0.02 | 0.02 | 0.02 | 0.03 | 0.02 | 0.03 | 0.03 | 0.04 | 0.03 | 0.04 |  |  | maximum value was less than half of that seen with the commercial product | took considerably longer |  |  |
| OCC1O[C@@H](O[C@]2(CCl)O[C@@H](CCl)C(O)C2O)C(O)C(O)[C@H]1Cl (stereo in doubt) [Not Seeded, 4,1′,6′-trichloro-4,1′,6′-trideoxygalactosucrose] | 0.00 | 0.60 | 1.09 | 0.81 | 2.21 | 1.15 | 3.41 | 2.01 | 4.91 | 2.91 | 6.21 | 4.11 | 6.71 | 7.11 |  |  |  |  | significantly higher moisture absorption | intermediate between the two |
